Measured values from patent publication US11117892B2, “Pyrrolo-pyridine derivative compound, method for preparing same, and pharmaceutical composition containing same as active ingredient for prevention or treatment of protein kinase-related diseases” (DAEGU-GYEONGBUK MEDICAL INNOVATION FOUNDATION, priority 2017, dated 2021).

Legend:
Assay in all cases: scanMAX Kinase assay panel
Format in all cases: binding
Settings in all cases: read-out: % control
[1] = target: EGFR (Homo sapiens (Human), UniProt P00533)
Method: (§1) DiscoverX Co. was asked to measure the enzyme (kinase) selectivity, and the experiment was performed using scanMAX™ Kinase assay panel.
(§2) (Example Compound−Positive Control)/(Negative Control−Positive Control)×100 [Equation 1]
(§3) Herein, the positive control indicates the compound showing the % control of 0%, and the negative control indicates DMSO showing the % control of 100%.

[2] = target: RPS6KA4(Kin.Dom.1-N-terminal) (Homo sapiens (Human), UniProt O75676)
Method: as §1, §2, §3

[3] = target: SGK2 (Homo sapiens (Human), UniProt Q9HBY8)
Method: as §1, §2, §3

[4] = target: PKMYT1 (Homo sapiens (Human), UniProt Q99640)
Method: as §1, §2, §3

[5] = target: GAK (Homo sapiens (Human), UniProt O14976)
Method: as §1, §2, §3

[6] = target: BMX (Homo sapiens (Human), UniProt P51813)
Method: as §1, §2, §3

[7] = target: YANK1 (Homo sapiens (Human), UniProt Q8WU08)
Method: as §1, §2, §3

[8] = target: PIM2 (Homo sapiens (Human), UniProt Q9P1W9)
Method: as §1, §2, §3

[9] = target: EPHB4 (Homo sapiens (Human), UniProt P54760)
Method: as §1, §2, §3

[10] = target: ITK (Homo sapiens (Human), UniProt Q08881)
Method: as §1, §2, §3

[11] = target: MEK1 (Homo sapiens (Human), UniProt Q02750)
Method: as §1, §2, §3

[12] = target: ERK4 (Homo sapiens (Human), UniProt P31152)
Method: as §1, §2, §3

[13] = target: p38-alpha (Homo sapiens (Human), UniProt Q16539)
Method: as §1, §2, §3

[14] = target: TAOK3 (Homo sapiens (Human), UniProt Q9H2K8)
Method: as §1, §2, §3

[15] = target: ULK3 (Homo sapiens (Human), UniProt Q6PHR2)
Method: as §1, §2, §3

[16] = target: RSK4(Kin.Dom.1-N-terminal) (Homo sapiens (Human), UniProt Q9UK32)
Method: as §1, §2, §3

[17] = target: MARK2 (Homo sapiens (Human), UniProt Q7KZI7)
Method: as §1, §2, §3

[18] = target: CDK3 (Homo sapiens (Human), UniProt Q00526)
Method: as §1, §2, §3

[19] = target: TRKA (Homo sapiens (Human), UniProt P04629)
Method: as §1, §2, §3

[20] = target: ERK5 (Homo sapiens (Human), UniProt Q13164)
Method: as §1, §2, §3

[21] = target: WEE1 (Homo sapiens (Human), UniProt P30291)
Method: as §1, §2, §3

[22] = target: PHKG2 (Homo sapiens (Human), UniProt P15735)
Method: as §1, §2, §3

[23] = target: PIKFYVE (Homo sapiens (Human), UniProt Q9Y2I7)
Method: as §1, §2, §3

[24] = target: PLK3 (Homo sapiens (Human), UniProt Q9H4B4)
Method: as §1, §2, §3

[25] = target: ALK(L1196M) (Homo sapiens (Human), UniProt Q9UM73, L1196M)
Method: as §1, §2, §3

[26] = target: MYO3A (Homo sapiens (Human), UniProt Q8NEV4)
Method: as §1, §2, §3

[27] = target: TAOK2 (Homo sapiens (Human), UniProt Q9UL54)
Method: as §1, §2, §3

[28] = target: ERBB3 (Homo sapiens (Human), UniProt P21860)
Method: as §1, §2, §3

[29] = target: SYK (Homo sapiens (Human), UniProt P43405)
Method: as §1, §2, §3

[30] = target: CDC2L5 (Homo sapiens (Human), UniProt Q14004)
Method: (§4) Particularly, the compounds of Examples 18 and 57 were selected among all of those compounds of the present invention. DiscoverX Co. was asked to measure the enzyme (kinase) selectivity, and the experiment was performed using scanMAX™ Kinase assay panel.
(§5) At this time, the concentration of the drug treated to each enzyme was 1 uM in DMSO and the control percentage (% control) was determined by the following Equation 1. (Example Compound−Positive Control)/(Negative Control−Positive Control)×100 [Equation 1]
(§6) Herein, the positive control indicates the compound showing the % control of 0%, and the negative control indicates DMSO showing the % control of 100%. The enzyme selectivity in the present invention is defined as follows: When the % control for each enzyme is less than 35% (<35%), it is judged that the compound has the activity to the corresponding enzyme.

[31] = target: PFPK5(P. falciparum) (Plasmodium falciparum (isolate 3D7), UniProt P61075)
Method: as §4, §5, §6

[32] = target: PRP4 (Homo sapiens (Human), UniProt Q13523)
Method: as §4, §5, §6

[33] = target: PFCDPK1(P. falciparum) (Plasmodium falciparum (isolate 3D7), UniProt P62344)
Method: as §4, §5, §6

[34] = target: PKNB(M. tuberculosis) (Mycobacterium tuberculosis (strain ATCC 25618 / H37Rv), UniProt P9WI81)
Method: as §4, §5, §6

PLK3, sequence (Q9H4B4 whole entry): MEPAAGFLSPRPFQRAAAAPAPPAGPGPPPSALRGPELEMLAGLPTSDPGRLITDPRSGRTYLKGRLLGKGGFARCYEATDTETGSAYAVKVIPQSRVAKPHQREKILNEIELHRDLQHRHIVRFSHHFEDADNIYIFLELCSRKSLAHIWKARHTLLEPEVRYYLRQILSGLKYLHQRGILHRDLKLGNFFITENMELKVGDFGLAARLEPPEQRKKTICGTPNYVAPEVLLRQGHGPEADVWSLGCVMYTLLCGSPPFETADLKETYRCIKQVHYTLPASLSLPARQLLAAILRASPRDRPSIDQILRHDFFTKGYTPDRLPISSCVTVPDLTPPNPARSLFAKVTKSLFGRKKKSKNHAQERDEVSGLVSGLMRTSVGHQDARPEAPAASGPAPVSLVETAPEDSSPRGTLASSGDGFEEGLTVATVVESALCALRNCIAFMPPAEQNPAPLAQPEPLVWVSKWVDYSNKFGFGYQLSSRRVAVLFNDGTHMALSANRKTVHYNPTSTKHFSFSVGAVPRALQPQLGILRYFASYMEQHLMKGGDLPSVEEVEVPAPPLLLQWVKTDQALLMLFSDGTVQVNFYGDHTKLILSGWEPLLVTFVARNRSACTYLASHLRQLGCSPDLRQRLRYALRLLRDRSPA
TRKA, sequence (P04629 33-796): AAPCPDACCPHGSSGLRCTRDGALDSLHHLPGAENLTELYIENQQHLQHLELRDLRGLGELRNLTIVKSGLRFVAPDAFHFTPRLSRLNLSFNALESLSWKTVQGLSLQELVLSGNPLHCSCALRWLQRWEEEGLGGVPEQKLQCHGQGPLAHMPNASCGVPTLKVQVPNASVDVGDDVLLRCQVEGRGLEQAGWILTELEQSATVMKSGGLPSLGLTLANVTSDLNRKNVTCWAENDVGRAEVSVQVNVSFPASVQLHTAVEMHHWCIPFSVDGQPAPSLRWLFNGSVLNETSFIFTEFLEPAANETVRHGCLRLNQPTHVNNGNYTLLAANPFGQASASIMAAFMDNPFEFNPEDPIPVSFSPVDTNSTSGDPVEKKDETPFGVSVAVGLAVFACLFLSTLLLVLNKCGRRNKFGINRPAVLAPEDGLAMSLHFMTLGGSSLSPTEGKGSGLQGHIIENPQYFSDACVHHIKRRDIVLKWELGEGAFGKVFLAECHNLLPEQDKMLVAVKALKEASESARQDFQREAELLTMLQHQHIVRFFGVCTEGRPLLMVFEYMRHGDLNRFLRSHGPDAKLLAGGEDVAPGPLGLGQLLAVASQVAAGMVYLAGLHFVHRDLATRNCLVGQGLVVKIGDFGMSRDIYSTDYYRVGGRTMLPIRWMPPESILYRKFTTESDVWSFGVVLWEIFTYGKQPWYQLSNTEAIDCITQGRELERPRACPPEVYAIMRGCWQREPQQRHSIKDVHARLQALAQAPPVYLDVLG
EGFR, sequence (P00533 25-1210): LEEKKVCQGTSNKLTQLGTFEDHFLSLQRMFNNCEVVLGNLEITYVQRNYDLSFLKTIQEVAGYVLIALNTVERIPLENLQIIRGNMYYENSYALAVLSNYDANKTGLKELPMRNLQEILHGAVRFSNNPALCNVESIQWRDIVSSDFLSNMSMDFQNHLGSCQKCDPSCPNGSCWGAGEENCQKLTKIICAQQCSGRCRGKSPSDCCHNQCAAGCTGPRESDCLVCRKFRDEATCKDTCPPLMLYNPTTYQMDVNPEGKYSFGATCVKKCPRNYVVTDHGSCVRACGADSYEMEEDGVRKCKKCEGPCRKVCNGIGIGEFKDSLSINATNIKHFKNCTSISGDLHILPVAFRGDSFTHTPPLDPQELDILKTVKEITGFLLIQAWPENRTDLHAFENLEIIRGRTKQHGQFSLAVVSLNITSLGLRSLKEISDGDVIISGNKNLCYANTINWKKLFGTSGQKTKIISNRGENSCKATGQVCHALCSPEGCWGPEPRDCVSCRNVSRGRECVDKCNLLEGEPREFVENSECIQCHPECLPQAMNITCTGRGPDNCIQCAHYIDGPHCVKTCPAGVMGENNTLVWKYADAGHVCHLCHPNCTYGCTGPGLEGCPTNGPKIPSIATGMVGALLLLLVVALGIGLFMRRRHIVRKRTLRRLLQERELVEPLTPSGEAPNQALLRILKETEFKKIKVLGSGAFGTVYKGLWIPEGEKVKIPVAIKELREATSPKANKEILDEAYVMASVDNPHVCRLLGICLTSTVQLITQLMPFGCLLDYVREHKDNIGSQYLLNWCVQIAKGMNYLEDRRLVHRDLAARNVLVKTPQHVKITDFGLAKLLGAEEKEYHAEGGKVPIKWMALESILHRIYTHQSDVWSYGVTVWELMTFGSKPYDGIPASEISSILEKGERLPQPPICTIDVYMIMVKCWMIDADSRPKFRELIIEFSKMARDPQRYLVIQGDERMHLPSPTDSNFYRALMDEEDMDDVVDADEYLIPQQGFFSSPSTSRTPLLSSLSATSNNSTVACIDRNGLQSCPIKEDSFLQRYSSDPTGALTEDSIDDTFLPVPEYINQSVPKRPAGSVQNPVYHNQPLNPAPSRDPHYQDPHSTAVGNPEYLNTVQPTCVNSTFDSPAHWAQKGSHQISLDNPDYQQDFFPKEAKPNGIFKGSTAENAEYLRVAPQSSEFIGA
EPHB4, sequence (P54760 16-987): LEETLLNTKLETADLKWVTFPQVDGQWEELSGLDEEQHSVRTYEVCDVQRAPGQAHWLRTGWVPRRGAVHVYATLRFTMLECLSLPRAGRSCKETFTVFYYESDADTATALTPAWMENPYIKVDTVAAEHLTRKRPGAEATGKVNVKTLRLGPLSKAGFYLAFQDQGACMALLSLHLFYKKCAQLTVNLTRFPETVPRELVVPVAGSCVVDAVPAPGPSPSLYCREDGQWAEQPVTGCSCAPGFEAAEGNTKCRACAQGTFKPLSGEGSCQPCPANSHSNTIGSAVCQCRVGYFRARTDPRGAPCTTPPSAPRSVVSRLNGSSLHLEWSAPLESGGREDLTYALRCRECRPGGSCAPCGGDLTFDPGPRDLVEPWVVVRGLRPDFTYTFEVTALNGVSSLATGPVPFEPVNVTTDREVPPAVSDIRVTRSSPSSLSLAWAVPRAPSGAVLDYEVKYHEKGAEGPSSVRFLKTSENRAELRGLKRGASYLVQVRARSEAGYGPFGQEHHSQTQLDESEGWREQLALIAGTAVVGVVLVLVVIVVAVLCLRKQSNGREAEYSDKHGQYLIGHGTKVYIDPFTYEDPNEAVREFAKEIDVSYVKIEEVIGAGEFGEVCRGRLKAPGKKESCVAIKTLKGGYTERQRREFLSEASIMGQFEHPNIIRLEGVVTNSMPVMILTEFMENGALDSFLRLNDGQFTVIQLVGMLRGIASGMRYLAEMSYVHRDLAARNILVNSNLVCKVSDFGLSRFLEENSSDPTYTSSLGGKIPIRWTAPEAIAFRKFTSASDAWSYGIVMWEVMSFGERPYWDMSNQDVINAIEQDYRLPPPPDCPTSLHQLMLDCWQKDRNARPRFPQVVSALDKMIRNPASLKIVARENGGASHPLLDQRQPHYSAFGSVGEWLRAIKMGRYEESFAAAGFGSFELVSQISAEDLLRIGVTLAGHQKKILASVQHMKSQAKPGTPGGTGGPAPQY
RSK4(Kin.Dom.1-N-terminal), sequence (Q9UK32 73-330): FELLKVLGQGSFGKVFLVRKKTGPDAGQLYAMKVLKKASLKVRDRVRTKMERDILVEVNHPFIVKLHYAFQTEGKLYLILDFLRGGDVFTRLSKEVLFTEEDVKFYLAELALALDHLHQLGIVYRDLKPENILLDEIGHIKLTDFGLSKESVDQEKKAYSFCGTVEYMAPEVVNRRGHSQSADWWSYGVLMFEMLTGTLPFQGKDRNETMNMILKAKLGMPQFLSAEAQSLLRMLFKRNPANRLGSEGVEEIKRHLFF
YANK1, sequence (Q8WU08 whole entry): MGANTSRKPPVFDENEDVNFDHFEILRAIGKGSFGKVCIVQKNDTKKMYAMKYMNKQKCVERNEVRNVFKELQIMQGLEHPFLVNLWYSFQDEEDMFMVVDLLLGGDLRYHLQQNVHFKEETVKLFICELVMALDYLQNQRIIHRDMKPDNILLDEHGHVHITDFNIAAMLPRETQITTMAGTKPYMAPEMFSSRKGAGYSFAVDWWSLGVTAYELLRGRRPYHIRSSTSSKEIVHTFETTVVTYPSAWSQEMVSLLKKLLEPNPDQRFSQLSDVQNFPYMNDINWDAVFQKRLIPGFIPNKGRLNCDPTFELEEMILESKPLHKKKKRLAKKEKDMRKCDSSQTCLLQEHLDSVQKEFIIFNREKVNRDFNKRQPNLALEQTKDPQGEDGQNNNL
PIM2, sequence (Q9P1W9 whole entry): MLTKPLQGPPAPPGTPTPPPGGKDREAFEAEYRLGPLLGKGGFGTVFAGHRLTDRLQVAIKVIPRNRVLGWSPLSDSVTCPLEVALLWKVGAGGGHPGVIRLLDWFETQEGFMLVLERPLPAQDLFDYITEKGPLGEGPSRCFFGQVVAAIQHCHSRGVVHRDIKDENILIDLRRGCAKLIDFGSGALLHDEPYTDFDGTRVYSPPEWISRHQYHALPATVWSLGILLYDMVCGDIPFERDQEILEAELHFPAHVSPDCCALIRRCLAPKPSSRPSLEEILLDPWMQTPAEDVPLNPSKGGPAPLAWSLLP
RPS6KA4(Kin.Dom.1-N-terminal), sequence (O75676 33-301): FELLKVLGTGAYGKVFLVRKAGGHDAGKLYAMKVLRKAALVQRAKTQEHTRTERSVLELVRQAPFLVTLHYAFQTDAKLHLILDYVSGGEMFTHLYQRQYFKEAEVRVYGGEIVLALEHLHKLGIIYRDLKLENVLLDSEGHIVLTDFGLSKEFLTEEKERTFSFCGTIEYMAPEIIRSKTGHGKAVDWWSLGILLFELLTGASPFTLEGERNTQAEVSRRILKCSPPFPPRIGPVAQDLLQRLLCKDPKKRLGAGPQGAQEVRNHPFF

Compound `CCNc1cc(Nc2ccc(C(=O)N3CCC(N4CCOCC4)CC3)cc2OC)nc2[nH]cc(C#N)c12` [Example 18, 4-(ethylamino)-6-((2-methoxy-4-(4-morpholinopiperidine-1-carbonyl)phenyl)amino)-1H-pyrrolo[2,3-b]pyridine-3-carbonitrile] has a remaining binding at 1 µM [1] of 100%, a remaining binding at 1 µM [2] of 100% and a remaining binding at 1 µM [3] of 64%. The remaining binding at 1 µM [4] was 90%, the remaining binding at 1 µM [5] was 15% and the remaining binding at 1 µM [6] was 75%. It also gave a remaining binding at 1 µM [7] of 100%, a remaining binding at 1 µM [8] of 96% and a remaining binding at 1 µM [9] of 100%. It also gave a remaining binding at 1 µM [10] of 87%, a remaining binding at 1 µM [11] of 19% and a remaining binding at 1 µM [12] of 98%. The remaining binding at 1 µM [13] was 100%, the remaining binding at 1 µM [14] was 94% and the remaining binding at 1 µM [15] was 95%. It also gave a remaining binding at 1 µM [16] of 81%, a remaining binding at 1 µM [17] of 89% and a remaining binding at 1 µM [18] of 97%. It also gave a remaining binding at 1 µM [19] of 86%, a remaining binding at 1 µM [20] of 20% and a remaining binding at 1 µM [21] of 100%. For the same compound, the remaining binding at 1 µM [22] was 12%, the remaining binding at 1 µM [23] was 99% and the remaining binding at 1 µM [24] was 79%. For the same compound, the remaining binding at 1 µM [25] was 13%, the remaining binding at 1 µM [26] was 71% and the remaining binding at 1 µM [27] was 77%. For the same compound, the remaining binding at 1 µM [28] was 97%, the remaining binding at 1 µM [29] was 66% and the remaining binding at 1 µM [30] was 100%. It also gave a remaining binding at 1 µM [31] of 98%, a remaining binding at 1 µM [32] of 100% and a remaining binding at 1 µM [33] of 72%. For the same compound, the remaining binding at 1 µM [34] was 82%.

With `CCNc1cc(Nc2ccc(C(=O)N3CCC(N4CCOCC4)CC3)cc2OC)nc2[nH]cc(C(F)(F)F)c12` [Example 57, (4-((4-(ethylamino)-3-(trifluoromethyl)-1H-pyrrolo[2,3-b]pyridin-6-yl)amino)-3-methoxyphenyl) (4-morpholinopiperidin-1-yl)methanone] the remaining binding at 1 µM [1] was 59%, the remaining binding at 1 µM [2] was 100% and the remaining binding at 1 µM [3] was 100%. It also gave a remaining binding at 1 µM [4] of 96%, a remaining binding at 1 µM [5] of 41% and a remaining binding at 1 µM [6] of 89%. For the same compound, the remaining binding at 1 µM [7] was 100%, the remaining binding at 1 µM [8] was 98% and the remaining binding at 1 µM [9] was 88%. For the same compound, the remaining binding at 1 µM [10] was 97%, the remaining binding at 1 µM [11] was 100% and the remaining binding at 1 µM [12] was 93%. The remaining binding at 1 µM [13] was 83%, the remaining binding at 1 µM [14] was 100% and the remaining binding at 1 µM [15] was 83%. For the same compound, the remaining binding at 1 µM [16] was 100%, the remaining binding at 1 µM [17] was 93% and the remaining binding at 1 µM [18] was 94%. For the same compound, the remaining binding at 1 µM [19] was 100%, the remaining binding at 1 µM [20] was 50% and the remaining binding at 1 µM [21] was 100%. The remaining binding at 1 µM [22] was 23%, the remaining binding at 1 µM [23] was 77% and the remaining binding at 1 µM [24] was 98%. The remaining binding at 1 µM [25] was 14%, the remaining binding at 1 µM [26] was 70% and the remaining binding at 1 µM [27] was 85%. It also gave a remaining binding at 1 µM [28] of 100%, a remaining binding at 1 µM [29] of 68% and a remaining binding at 1 µM [30] of 92%. The remaining binding at 1 µM [31] was 98%, the remaining binding at 1 µM [32] was 91% and the remaining binding at 1 µM [33] was 98%. It also gave a remaining binding at 1 µM [34] of 100%.
